{
  "source": "patent US20120149715A1",
  "about": "“COMPOUNDS AND METHODS FOR THE TREATMENT OF VIRAL INFECTIONS” (priority 2010, published 2012)",
  "tested_on": "A/Vietnam/1194/04 H5N1 virus",
  "design": "species or system BALB/c mice",
  "settings": "mouse, in vivo",
  "data": [
    {"substance": "Nucleozin", "values": [
      {"measurement": "animals that survived for more than 21 days", "result": 90, "unit": "%"},
      {"measurement": "survival rate after inoculation compared with untreated controls", "setting": "ip", "result": "significantly higher survival rate"}
    ]}
  ]
}
